# Results reported in PubChem BioAssay (NCI).
#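 Dose response: 5 concentrations. Exposure: 48 h. Format: 96-well plates. Endpoint: linear interpolation; highest concentration if not reached. Definition used: TGI = concentration required for complete inhibition of growth.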
# Tests used:
# Test in all cases: inhibition of tumour cell growth, NCI panel, 48 h
# HL-60(TB) leukemia = system: HL-60(TB) leukemia
# M14 melanoma = system: M14 melanoma
# OVCAR-8 ovarian = system: OVCAR-8 ovarian
# NCI/ADR-RES ovarian = system: NCI/ADR-RES ovarian
# HS 578T breast = system: HS 578T breast
# MOLT-4 leukemia = system: MOLT-4 leukemia
# SK-MEL-5 melanoma = system: SK-MEL-5 melanoma
# SF-539 CNS = system: SF-539 CNS
# HT29 colon = system: HT29 colon
# EKVX NSCLC = system: EKVX NSCLC
# LOX IMVI melanoma = system: LOX IMVI melanoma
# CCRF-CEM leukemia = system: CCRF-CEM leukemia
# COLO 205 colon = system: COLO 205 colon
# UACC-62 melanoma = system: UACC-62 melanoma
# U251 CNS = system: U251 CNS
# NCI-H460 lung = system: NCI-H460 lung
# MDA-MB-231 breast = system: MDA-MB-231 breast
# CAKI-1 renal = system: CAKI-1 renal
# SK-OV-3 ovarian = system: SK-OV-3 ovarian
# HCT-116 colon = system: HCT-116 colon
# SNB-19 CNS = system: SNB-19 CNS
# KM12 colon = system: KM12 colon
# NCI-H522 lung = system: NCI-H522 lung
# SF-295 CNS = system: SF-295 CNS
# DU-145 prostate = system: DU-145 prostate
# TK-10 renal = system: TK-10 renal
# UACC-257 melanoma = system: UACC-257 melanoma
# SNB-75 CNS = system: SNB-75 CNS
# HCT-15 colon = system: HCT-15 colon
# RPMI-8226 leukemia = system: RPMI-8226 leukemia
# K-562 leukemia = system: K-562 leukemia
# MDA-MB-435 = system: MDA-MB-435
# SN12C renal = system: SN12C renal
# OVCAR-4 ovarian = system: OVCAR-4 ovarian
# HOP-62 NSCLC = system: HOP-62 NSCLC
# SK-MEL-2 melanoma = system: SK-MEL-2 melanoma
# RXF 393 renal = system: RXF 393 renal
# A498 renal = system: A498 renal
# OVCAR-3 ovarian = system: OVCAR-3 ovarian
# NCI-H226 lung = system: NCI-H226 lung
# HOP-92 NSCLC = system: HOP-92 NSCLC
# PC-3 prostate = system: PC-3 prostate
# UO-31 renal = system: UO-31 renal
# SK-MEL-28 melanoma = system: SK-MEL-28 melanoma
# NCI-H23 lung = system: NCI-H23 lung
# HCC-2998 colon = system: HCC-2998 colon
# MCF7 breast = system: MCF7 breast
# T-47D breast = system: T-47D breast
# BT-549 breast = system: BT-549 breast
# OVCAR-5 ovarian = system: OVCAR-5 ovarian
# SF-268 CNS = system: SF-268 CNS
# IGROV1 ovarian = system: IGROV1 ovarian
# A549 NSCLC = system: A549 NSCLC
# MALME-3M melanoma = system: MALME-3M melanoma
# MDA-N = system: MDA-N
# ACHN renal = system: ACHN renal
# 786-0 renal = system: 786-0 renal
# SW-620 colon = system: SW-620 colon
# SR leukemia = system: SR leukemia
structure (smiles),measurement,setting,value
OC1COC(n2c3ccc(Br)cc3c3ccc4c5ccccc5[nH]c4c32)C(O)C1O (centres undefined),TGI,HL-60(TB) leukemia,8.75 µM
same,TGI,M14 melanoma,15.3 µM
same,TGI,OVCAR-8 ovarian,15.8 µM
same,TGI,NCI/ADR-RES ovarian,19.1 µM
same,TGI,HS 578T breast,18.1 µM
same,TGI,MOLT-4 leukemia,11.2 µM
same,TGI,SK-MEL-5 melanoma,5.2 µM
same,TGI,SF-539 CNS,16.2 µM
same,TGI,HT29 colon,11.4 µM
same,TGI,EKVX NSCLC,17.3 µM
same,TGI,LOX IMVI melanoma,10.4 µM
same,TGI,CCRF-CEM leukemia,19.3 µM
same,TGI,COLO 205 colon,3.65 µM
same,TGI,UACC-62 melanoma,1.53 µM
same,TGI,U251 CNS,32.1 µM
same,TGI,NCI-H460 lung,18.6 µM
same,TGI,MDA-MB-231 breast,7.47 µM
same,TGI,CAKI-1 renal,10.6 µM
same,TGI,SK-OV-3 ovarian,17.7 µM
same,TGI,HCT-116 colon,12 µM
same,TGI,SNB-19 CNS,28.2 µM
same,TGI,KM12 colon,3.53 µM
same,TGI,NCI-H522 lung,11.3 µM
same,TGI,SF-295 CNS,10.6 µM
same,TGI,DU-145 prostate,12.6 µM
same,TGI,TK-10 renal,13.9 µM
same,TGI,UACC-257 melanoma,19.9 µM
same,TGI,SNB-75 CNS,14.3 µM
same,TGI,HCT-15 colon,15.7 µM
same,TGI,RPMI-8226 leukemia,15.8 µM
same,TGI,K-562 leukemia,13.6 µM
same,TGI,MDA-MB-435,16.1 µM
same,TGI,SN12C renal,16 µM
same,TGI,OVCAR-4 ovarian,> 46.2 µM
same,TGI,HOP-62 NSCLC,14.7 µM
same,TGI,SK-MEL-2 melanoma,19.8 µM
same,TGI,RXF 393 renal,7.37 µM
same,TGI,A498 renal,13.9 µM
same,TGI,OVCAR-3 ovarian,12.5 µM
same,TGI,NCI-H226 lung,30.3 µM
same,TGI,HOP-92 NSCLC,9.38 µM
same,TGI,PC-3 prostate,12 µM
same,TGI,UO-31 renal,14.2 µM
same,TGI,SK-MEL-28 melanoma,28.9 µM
same,TGI,NCI-H23 lung,12 µM
same,TGI,HCC-2998 colon,11.4 µM
same,TGI,MCF7 breast,14.2 µM
same,TGI,T-47D breast,20.1 µM
same,TGI,BT-549 breast,26.3 µM
same,TGI,OVCAR-5 ovarian,12.4 µM
same,TGI,SF-268 CNS,19.9 µM
same,TGI,IGROV1 ovarian,8.21 µM
same,TGI,A549 NSCLC,23.7 µM
same,TGI,MALME-3M melanoma,15.3 µM
same,TGI,MDA-N,15.2 µM
same,TGI,ACHN renal,10.9 µM
same,TGI,786-0 renal,17.8 µM
same,TGI,SW-620 colon,29.4 µM
same,TGI,SR leukemia,13.3 µM
